From patent US20260256140A1, “BIPHENYL COMPOUNDS CONTAINING SUBSTITUTED SULFIDE (SULFOXIDE) GROUPS AND USES THEREOF” (METISA BIOTECHNOLOGY CO., LTD, priority 2021, published 2026)

Tests used:
Assay type in all cases: in vivo
Mythimna separata = test: Activity against Mythimna separata, Airbrush spray on maize leaf pieces; settings: 500 mg/L, 3 days after administration, 3rd-instar larvae
Description: Insecticidal activity determination experiments were conducted on several insects using the compound of the present invention and control compounds KC1, KC2, and KC3. Determination methods were described below. The compounds to be determined were each dissolved in a mixed solvent of acetone/methanol (1:1), and diluted using water containing 0.1% (wt) tween-80 to desired concentrations. With Mythimna separata and Plutella xylostella as targets, Airbrush spray method was adopted for activity determination. Determination Method: maize leaves were cut into 2 cm leaf pieces, and the front and back of each leaf piece were sprayed under an Airbrush spray treatment pressure of 10 psi (approximate to 0.7 kg/cm^2) and with a spray volume of 0.5 mL. After drying in the shade, 10 3rd-instar larvae were inoculated for each treatment, and each treatment was repeated for 3 times. After the treatment, the leaf pieces were put into an observation chamber at 25° C. and with a relative humidity of 60% to 70%, and the number of living larvae was investigated 3 days after the administration of the compounds, and the death rates were calculated.

Plutella xylostella = test: Activity against Plutella xylostella, Airbrush spray on cabbage leaf discs; settings: 500 mg/L, 3 days after administration, 3rd-instar larvae
Description: Insecticidal activity determination experiments were conducted on several insects using the compound of the present invention and control compounds KC1, KC2, and KC3. Determination methods were described below. The compounds to be determined were each dissolved in a mixed solvent of acetone/methanol (1:1), and diluted using water containing 0.1% (wt) tween-80 to desired concentrations. With Mythimna separata and Plutella xylostella as targets, Airbrush spray method was adopted for activity determination. Determination Method: cabbage leaves were formed into leaf discs having a diameter of 2 cm using a puncher, and the front and back of each leaf disc were sprayed under an Airbrush spray treatment pressure of 10 psi (approximate to 0.7 kg/cm^2) and with a spray volume of 0.5 mL. After drying in the shade, 10 3rd-instar larvae were inoculated for each treatment, and each treatment was repeated for 3 times. After the treatment, the leaf discs were placed into an observation chamber at 25° C. and with a relative humidity of 60% to 70%, and the number of living larvae was investigated 3 days after the administration of the compounds, and the death rates were calculated.

Tetranychus cinnabarinus = test: Greenhouse acaricidal activity determination on Phaseolus vulgaris seedlings; settings: 3 days after administration, parallel comparison
Description: Greenhouse acaricidal activity determination was carried out on the compounds of the present invention. A determination method was described below. […] Two true leaves of Phaseolus vulgaris seedlings were inoculated with adult Tetranychus cinnabarinus and a basic number was investigated. An entire seedling was then sprayed using a hand-held sprayer. Each treatment was repeated for 3 times. After the treatment, the seedlings were placed into a standard observation chamber, and the number of living mites was investigated 72 hours later, and the death rates were calculated. Parallel comparison experiments on acaricidal activity were conducted for Tetranychus cinnabarinus using the compounds 1.22, 1.23, and 1.24 and control compounds (3 days after the administration of the compounds), and the determination method was as described above; and the results were shown in Table 14: […]

Row | Structure (SMILES) | death rate for Mythimna separata (Mythimna separata) | death rate for Plutella xylostella (Plutella xylostella) | Death Rate (%, 3 days after the administration of the compounds) 1.25 mg/L (Tetranychus cinnabarinus) | Death Rate (%, 3 days after the administration of the compounds) 2.5 mg/L (Tetranychus cinnabarinus)
1 | Cc1cc(F)c(-c2cc(SCC(F)(F)F)c(C)cc2F)cc1SCC(F)(F)F [KC1] | 0% | 0% | 22.9% | 52.0%
2 | Cc1cc(F)c(-c2cc([S+]([O-])CC(F)(F)F)c(C)cc2F)cc1SCC(F)(F)F (stereo not drawn) [KC2] | 0% | 0% | 0% | 50.0%
3 | Cc1cc(F)c(-c2cc([S+]([O-])CC(F)(F)F)c(C)cc2F)cc1[S+]([O-])CC(F)(F)F (stereo not drawn) [KC3] | 0% | 0% | 0% | 0%
